The source of these data is patent publication US20100184113A1, “CONTROLLING OSTEOGENESIS BY INHIBITION OF OSTEOGENIC SUPPRESSORS” (The Scripps Research Institute Office of Patent Counsel, priority 2006, published 2010).

Holding throughout (assay type): cell-based, human
In series [1] the test system is hMSCs. The series can be described thus: Alkaline phosphatase (ALP) activity staining of hMSCs after siRNA transfection. Here is the method:
The human mesenchymal stem cells (hMSCs, PT-2501) were purchased from Cambrex Inc. and cultured as instructed by the supplier. Cells were expanded to passage 5 before being used for siRNA library screen. Briefly, diluted Xtreme-siRNA transfection reagent (cat# 476 115 00, Roche) (0.12 μl Xtreme in 14 μl DMEM) was mixed with pre-spotted siRNA (14 ng/well) in each well of 384-well plates for one hour. Cells (4000/well) in 60 μl media (no antibiotics) were then added using automated dispenser (Multidrop 384, Thermo LabSystems) (siRNA final concentration at around 15 nM). Transfection was allowed to continue for 8 hours before first media renewal. After 7 days of culture, cells were stained for alkaline phosphatase (ALP) activity (cat# 86R-1 KT, Sigma). Post-screen assays were done in 96-well plates and siRNA was transfected at the concentration of 30 nM at the cell density of 8000 cells/well. CRE decoy oligonucleotide and control oligonucleotide (phosphorothioate bond modification on all nucleotides) (Park, Y. G. et al., J Biol Chem 274:1573-1580 (1999)) were transfected into cells similarly as siRNA using Xtreme-siRNA transfection reagent, except that the final DNA concentration was 90 nM. […]

In series [2] the test system is hMSCs. The series can be described thus: Adipogenic differentiation of hMSCs, Oil Red O staining. Conditions: Adipo from third day after siRNA transfection, continued 12 days, Oil Red O. Here is the method:
Cells were rinsed with PBS twice, fixed in 10% formalin solution for 20 minutes, rinsed with PBS twice and dH2O once, washed with propylene glycol for 5 minutes, and stained with Oil red in propylene glycol (12722A, Newcomer Supply) for 30 minutes. Cells were then washed with 85% propylene glycol for 5 minutes, rinsed with dH2O 3 times and preserved in 50% glycerol.
8-CPT-cAMP, Na (cat# 116812), 5-Iodotubercidin (cat# 407900), Prostaglandin E2 (PGE2, cat# 538904), SB 202190 (cat# 559388) and U0126 (cat# 662005) were purchased from Calbiochem; N6,2′-O-Dibutyryl-cAMP (cat# D0260-5MG), forskolin (cat# F6886), ascorbic acid 2-phosphate (cat# 49752-10G), (3-glycerophosphate (G-6251), dexamethasone (D8893), 3-isobutyl-1-methylxanthine (IBMX, 15879) and Insulin (19278) were purchased from Sigma/Aldrich/Fluka.
Bone cell maturation is accompanied by extracellular matrix (ECM) mineralization (John Bilezikian et al., Principles of bone biology, Vol 1, 2nd edn: Academic Press) (2002)). To examine whether the osteogenic differentiation of hMSCs induced by the hit siRNAs can further proceed to the maturation stage, hit siRNA treated cells were cultured for 20 days. […] These observations are consistent with the conclusion that the targeted genes of the ten effective hit siRNAs not only play inhibitory roles in osteogenic specification of hMSCs, but also in bone cell maturation. […] Furthermore, in osteoporotic patients, the number of adipocytes was increased in the marrow, implying a change of cell fate disposition from osteoblast lineage to adipocyte lineage (Justesen, J. et al., Biogerontology 2:165-171 (2001); Meunier, P. et al., Clin Orthop Relat Res 80:147-154 (1971)). We therefore examined the effect of our hit siRNAs on adipogenic differentiation of hMSCs by combined treatment with an adipogenic inducing cocktail (100 μg/ml BMX, 1 μM DEX and 10 μg/ml insulin).
Since the targeted genes are all positively involved in intracellular cAMP signaling, we tested the effect of two compounds of opposing function on cAMP production on osteogenic differentiation of hMSCs, ADK inhibitor 5-iodotubercidin and ADCY activator forskolin (Cottam, H. B. et al., J Med Chem 36:3424-3430 (1993); de Souza, N. J. et al., Med Res Rev 3:201-219 (1983)). […] ATP has been shown as a ligand for P2RY11 receptor (Communi et al., 1997). […] The present observations are consistent with the conclusion that […] in hMSCs, and vice versa.

Series [3] has as its system hMSCs. The series can be described thus: Alizarin red staining for calcium phosphate deposits (ECM mineralization, bone cell maturation). Conditions: OS treatment started three days after siRNA transfection and continued for 9 days (3+9OS), vs siCon.
Series [4] concerns p38. The series can be described thus: Western blot of phosphorylated p38. Conditions: 72 hours after transfection. Here is the method:
Cell lyses buffer contains 20 mM Tris pH8.0, 1 mM EDTA, 150 mM NaCl and 0.5% NP-40, and before usage, protease inhibitor cocktail (Cat# p8340, Sigma, 1:100 dilution) and phosphatase inhibitor cocktail 2 (Cat# p5726, sigma, 1:100 dilution) were added. Proteins (60 μg/well) were separated in 12% Novex Tris-Glycine gel (Cat# EC6008 box, Invitrogen) and transferred to Nitrocellulose membrane (Cat# LC2001, Invitrogen) using the XCell II blot module system (Cat# E19051, Invitrogen). The membrane was blocked in 5% milk/PBST for 1 hour at room temperature, incubated over night at 4 degree with primary antibody, washed 3 times with PBST (0.05% Tween 20 in PBS), followed by one hour incubation with secondary antibody in 5% milk/PBST and 3 times wash with PBST at room temperature. For antibody against pCREB however, PBST was substituted with PBS in all steps except for the last one. Antibody-bound proteins were detected utilizing ECL Western blotting detection reagent (Amersham Biosciences).
Anti-phospho-CREB was purchased from Upstate Biotechnology (cat# 06-519); Anti-phospho-p38 was purchased from Cell signaling technology (cat# 9910).
We therefore examined the activation status of ERK1/2 and p38 in the siDUSP6 treated hMSCs along with other siRNA treated samples by western blot using antibodies against the phosphorylated form of the protein at 72 hours after transfection (FIG. 9c).
On the technique in general: In western blotting, separated proteins are transferred to a membrane and probed.

Series [5] relates to PLZF. The series can be described thus: RT-PCR of PLZF. Particulars: samples collected day 7 or day 12 after siRNA transfection. As to the method:
Total RNA from each sample was prepared from around 5×10(4) cells using RNAeasy mini kit from Qiagen and further treated with Turbo DNA-Free (cat# 1907, Ambion) to prevent DNA contamination. Reverse transcription was carried out using SuperScript First-Strand Synthesis System for RT-PCR (cat# 11904-018, Invitrogen) or Qiagen OneStep RT-PCR kit (cat# 210210) as instructed. PCR primers used were as follows: […]
To test their roles in our siRNA induced osteogenic differentiation, RT-PCR was performed on these genes. […] In addition, MAPK signaling pathways have been shown activated in the OS treated hMSCs, and inhibition of these pathways suppresses OS induced osteogenesis (FIG. 9b) (Jaiswal, R. K. et al., J Biol Chem 275:9645-9652 (2000)).

As to “CBFA1 siRNA: CBFA1-specific siRNA, antisense UAGUAGAGAUAUGGAGUGCtg, sense GCACUCCAUAUCUCUACUAtt (chain 1 UAGUAGAGAUAUGGAGUGCTG; chain 2 GCACUCCAUAUCUCUACUATT; chemistry not given here) [reference compound]”, the “ALP activity induced by hit siRNAs or OS on co-treatment” value in series [1] (co-transfected with each hit siRNA, vs co-treatment with siCon) was “reduced the level of ALP activity”.
On to “siCOMP: siRNA CGGUCACGGAUGACGACUA targeting cartilage oligomeric matrix protein (listed as RNA, further chemistry not given here)”, for which the “osteogenic differentiation (ALP activity)” value in series [1] (9 days after siRNA transfection) is listed as “induces osteogenic differentiation of hMSCs”. Further, in series [2], the “adipogenesis induced by adipogenic inducing media (Adipo)” value is reported as “enhances adipogenesis”.
As to “siDUSP6: siRNA CUGUGGUGUCUUGGUACAU targeting dual specificity phosphatase 6 (listed as RNA, chemistry not given here)”, the “intensity of alizarin red staining” value in series [3] is reported as “modest enhancement”. For the same substance, the “level of active (phosphorylated) p38” value in series [4] is recorded as “increased level of active p38”.
On to “siMJD: siRNA CAGAUGCAUCGACCAAAAC targeting Machado-Joseph disease (ataxin 3) (listed as RNA, chemistry not given here)”, for which the “intensity of alizarin red staining” value in series [3] was “no significant effect”. For the same substance, the “expression of PLZF” value in series [5] is on record as “detected”.
